From paper PMC13224100, “Esterase-Responsive Mitochondria-Targeted Hydropersulfide Donors Mitigate Doxorubicin Cardiotoxicity While Preserving Anticancer Activity” (Angewandte Chemie (International ed. in English), 2025)

Assays:
Assay type in all cases: cell-based
HepG2 cells [1] = experiment: Cytotoxicity of RSSH donors, CCK-8 assay; conditions: up to 200 μM, 24 h
Description: (§1) We next evaluated the effects of RSSH donors on DOX activity in three representative cancer cell lines: triple-negative breast cancer MDA-MB-468, ER-positive breast cancer MCF-7, and hepatocellular carcinoma HepG2.
Figure S22. Measurement of Cys-SH and GSH in cytoplasm (A, B) and mitochondria (C, D) of H9c2 cells treated with APT-1 (200 µM) APT-1-TPP (200 µM), or vehicle (0.01% DMSO in serum-free medium) for 2 h. Data are mean ± SEM (n = 3); *p ≤ 0.05, **p ≤ 0.01.
Cytotoxicity Assessment of Hydropersulfide Precursors in H9c2 and HepG2 cells Cell viability was measured using the Cell Counting Kit-8 (CCK-8, Dojindo).[7] […] The plates were then incubated for 1-2 h before measuring absorbance at 450 nm using a plate reader […]
calculated as: % Viability = 100 × [Abs₄₅₀ (treated cells) / Abs₄₅₀ (vehicle control)]. […]
Figure S23. […] Results are expressed as mean ± SEM, n≥3; *P<0.05, **P<0.01, ***P<0.001, ****P<0.0001. […]
Cytoprotective studies were performed as previously described.[8] […] The plates were then incubated for 1-2 h before measuring absorbance at […]
The relative % cell viability was calculated as 100 times the ratio of Abs450 (RSSH donor + DOX-exposed) to Abs450 (vehicle, non-DOX-exposed). […]
Basal sulfane sulfur levels were quantified using the fluorescent probe Sulfobiotics SSP4 (Dojindo, SB10) as previously described.[5] […]

MDA-MB-468 cells = experiment: Effect of RSSH donors on anticancer activity of DOX, CCK-8; conditions: 4 h pretreatment, then 24 h co-treatment with DOX 5 μM
Description: as §1
(§2) Figure 5. Effect of RSSH donors on anticancer activity of DOX in cancer cells. MDA-MB-468, MCF-7, and HepG2 cells were pretreated with APT-1 or its mitochondria-targeted analog APT-1-TPP for 4 h, followed by co-treatment with DOX (5 μM for MDA-MB-468 and HepG2; 15 μM for MCF-7) for an additional 24 h. Results are presented as mean ± SEM, n = 3; *p < 0.05, **p < 0.01, ***p < 0.001, ****p < 0.0001. Ctl = vehicle-treated group (0.01% DMSO in medium). […]
(§3) Cytoprotective Effects of RSSH Donors against Doxorubicin Toxicity
(§4) Cytoprotective studies were performed as previously described.[8] Briefly, H9c2 cells, HepG2 cells, MDA-MB-468 cells, and MCF-7 cells were seeded at a density of 7 x 10^3 cells/well. […] Additionally, in the vehicle control group, cells were treated with medium (DMEM with 10% FBS) containing 0.01% DMSO only. The cells were then further incubated for an additional 4 h before being treated with DOX (10 μL/well, with final concentration of 5 μM). After a 24 h co-incubation with DOX, each well was carefully washed three times with PBS (pH 7.4) and 100 μL o f F B S-free medium containing 10% v/v CCK-8 (Dojindo) was added. The plates were then incubated for 1-2 h before measuring absorbance at […]
(§5) The relative % cell viability was calculated as 100 times the ratio of Abs450 (RSSH donor + DOX-exposed) to Abs450 (vehicle, non-DOX-exposed). Each treatment condition was performed in 6 technical replicates per biological replicate, and the experiment was independently repeated three times (n = 3 biological replicates). Data are presented as mean ± SEM. […]

MCF-7 cells = experiment: as above; conditions: 4 h pretreatment, then 24 h co-treatment with DOX 15 μM
Description: as §1, §2, §3, §4, §5

HepG2 cells [2] = experiment: as above; conditions: 4 h pretreatment, then 24 h co-treatment with DOX 5 μM
Description: as §1, §2, §3, §4, §5

COC(=O)C(NC(C)=O)C(C)(C)SSC(=O)N(C)CCOC(C)=O (stereo not drawn) [APT-1]
cytotoxicity of donor alone (HepG2 cells [1]): non-toxic
effect on DOX cytotoxicity (MDA-MB-468 cells): did not provide cytoprotection
effect on DOX cytotoxicity (MCF-7 cells): did not blunt DOX cytotoxicity
effect on DOX cytotoxicity (HepG2 cells [2]): no protective effect

CC(=O)NC(C(=O)N(C)CCC[P+](c1ccccc1)(c1ccccc1)c1ccccc1)C(C)(C)SSC(=O)N(C)CCOC(C)=O (stereo not drawn) [APT-1-TPP]
cytotoxicity of donor alone (HepG2 cells [1]): non-toxic
concentration that modestly enhanced DOX's anticancer activity (MDA-MB-468 cells): ≥ 100 µM
effect on DOX cytotoxicity (MDA-MB-468 cells): no protective effect
effect on DOX cytotoxicity (MCF-7 cells): synergistically enhanced its activity
effect on DOX cytotoxicity (HepG2 cells [2]): potentiated DOX cytotoxicity in a dose-dependent manner
